In patent US20230203098A1, “HUMAN TRANSFERRIN RECEPTOR BINDING PEPTIDE” (priority 2020, published 2023):
pKd: −log10 of the molar value. Read-outs that look alike come from different tables or passages of the source. Blank lines part the entries; values can stand above or below the molecule they belong to. Where a SMILES comes first, the peptide text is derived from it. Bridges are numbered along the chain shown (N, C = ends). [ ]: non-standard residue; d: D form. The star is where a group is joined. X2 = O=C(O)c1cc(C(=O)*)ccc1-c1c2ccc(=O)cc-2oc2cc(O)ccc12; PEG12 = NCCOCCOCCOCCOCCOCCOCCOCCOCCOCCOCCOCCOCCC(=O)O; NMePhe(3-Cl) = CN[C@@H](Cc1cccc(Cl)c1)C(=O)O; NMeW = CN[C@@H](Cc1c[nH]c2ccccc12)C(=O)O; Lys(N3) = [N-]=[N+]=NCCCC[C@H](N)C(=O)O; NMeY = CN[C@@H](Cc1ccc(O)cc1)C(=O)O; NMeF = CN[C@@H](Cc1ccccc1)C(=O)O; Ahp(2) = CCCCC[C@H](N)C(=O)O; Chg = N[C@H](C(=O)O)C1CCCCC1; PEG4 = NCCOCCOCCOCCOCCC(=O)O; Abu = CC[C@H](N)C(=O)O

Biological target: transferrin receptor (hTfR) (Homo sapiens, UniProt P02786)
Test: Intermolecular interaction evaluation test between transferrin receptor (hTfR) and peptide by surface plasmon resonance (SPR)
Type: binding
How it was run: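 Receptor was Ni-captured and EDC/NHS-fixed on an NTA chip; running buffer HEPES pH 8.0 with NaCl, Tween 20, BSA and 1.0% DMSO.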

[1] = binding to hTfR by SPR, Table 2 peptides, read-out: KD value (SPR) class
[2] = surface plasmon resonance, hTfR, read-out: KD value for hTfR by SPR (class symbol)
[3] = hTfR binding by SPR, hTfR No. 894 variant peptides, linker-added peptides and payload conjugates (Table 2), read-out: KD value obtained from the SPR measurement
[4] = SPR, peptides, linker-added peptides and FITC conjugates, Patent ID 203-230, read-out: KD

Sequence of transferrin receptor (hTfR) (P02786 whole entry): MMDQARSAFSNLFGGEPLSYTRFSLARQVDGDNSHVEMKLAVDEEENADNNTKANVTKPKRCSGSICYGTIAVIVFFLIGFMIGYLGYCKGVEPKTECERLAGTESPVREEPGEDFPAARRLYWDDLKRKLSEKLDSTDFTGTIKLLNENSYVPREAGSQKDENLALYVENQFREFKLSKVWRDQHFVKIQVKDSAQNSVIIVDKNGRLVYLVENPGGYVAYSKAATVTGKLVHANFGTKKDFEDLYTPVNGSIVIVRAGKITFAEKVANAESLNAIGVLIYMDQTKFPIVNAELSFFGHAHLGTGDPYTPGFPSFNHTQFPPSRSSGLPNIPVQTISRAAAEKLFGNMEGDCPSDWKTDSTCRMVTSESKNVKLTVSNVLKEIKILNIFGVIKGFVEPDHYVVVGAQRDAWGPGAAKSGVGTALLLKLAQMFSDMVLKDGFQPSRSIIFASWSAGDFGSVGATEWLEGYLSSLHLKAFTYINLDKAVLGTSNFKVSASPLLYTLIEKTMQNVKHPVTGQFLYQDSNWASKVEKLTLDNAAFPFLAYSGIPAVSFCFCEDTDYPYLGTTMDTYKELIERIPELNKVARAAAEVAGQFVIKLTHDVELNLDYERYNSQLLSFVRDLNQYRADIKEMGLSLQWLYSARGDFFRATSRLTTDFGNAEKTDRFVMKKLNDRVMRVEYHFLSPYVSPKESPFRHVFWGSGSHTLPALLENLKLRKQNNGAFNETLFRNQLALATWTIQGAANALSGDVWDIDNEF

Structure (SMILES): CC[C@H](C)[C@@H]1NC(=O)[C@H](Cc2ccc(O)cc2)NC(=O)[C@H](Cc2ccc(O)cc2)NC(=O)[C@H](CC(N)=O)NC(=O)[C@H](Cc2c[nH]c3ccccc23)NC(=O)[C@H](C(C)C)NC(=O)[C@H](Cc2ccccc2)NC(=O)[C@H](C(C)C)NC(=O)[C@H](C)NC(=O)CSC[C@@H](C(N)=O)NC(=O)[C@H](Cc2ccc(O)cc2)N(C)C(=O)[C@H](CCCNC(=N)N)NC(=O)[C@H](CCCNC(=N)N)NC(=O)[C@H](CCCNC(=N)N)NC(=O)[C@H]([C@@H](C)CC)NC1=O [compound 260]
- pKd [1]: 7.00 to 9.00

Structure (SMILES): CC[C@H](C)[C@@H]1NC(=O)[C@H](Cc2ccc(O)cc2)NC(=O)[C@H](Cc2ccc(O)cc2)NC(=O)[C@H](CC(N)=O)NC(=O)[C@H](Cc2c[nH]c3ccccc23)NC(=O)[C@H](C(C)C)NC(=O)[C@H](Cc2ccccc2)N(C)C(=O)[C@H](Cc2ccccc2)NC(=O)[C@H](C)NC(=O)CSC[C@@H](C(=O)NCCOCCOCCOCCOCCOCCOCCOCCOCCOCCOCCOCCOCCC(N)=O)NC(=O)[C@H](Cc2ccc(O)cc2)N(C)C(=O)[C@H](Cc2ccc(O)cc2)NC(=O)[C@H](CCCNC(=N)N)NC(=O)[C@H](CCCNC(=N)N)NC(=O)[C@H]([C@@H](C)CC)NC1=O [compound 133] ({CH2CO}-AF[NMeF]VWNYYIIRRY[NMeY]C[PEG12]-NH2; thioether N-15)
- pKd (SPR, hTfR No. 894 variants with PEG12c linker (Table 2), read-out: KD): 7.00 to 9.00

Structure (SMILES): CC[C@H](C)[C@@H]1NC(=O)[C@H](Cc2ccc(O)cc2)NC(=O)[C@H](Cc2ccc(O)cc2)NC(=O)[C@H](CC(N)=O)NC(=O)[C@H](Cc2c[nH]c3ccccc23)NC(=O)[C@H](C(C)C)NC(=O)[C@H](Cc2ccccc2)N(C)C(=O)[C@H](C(C)C)NC(=O)[C@H](C)NC(=O)CSC[C@@H](C(=O)NCC(=O)NCC(=O)N[C@@H](CO)C(=O)N[C@@H](CCCCNC(=O)C2CCC(CN3C(=O)C=CC3=O)CC2)C(N)=O)NC(=O)[C@H](Cc2ccc(O)cc2)N(C)C(=O)[C@H](Cc2ccc(O)cc2)NC(=O)[C@H](CCCNC(=N)N)NC(=O)[C@H](CCCNC(=N)N)NC(=O)[C@H]([C@@H](C)CC)NC1=O (stereo partly shown) [compound 194]
- pKd [3]: 7.00 to 9.00

Structure (SMILES): CC[C@H](C)[C@@H]1NC(=O)[C@H](Cc2ccc(O)cc2)NC(=O)[C@H](Cc2ccc(O)cc2)NC(=O)[C@H](CC(N)=O)NC(=O)[C@H](Cc2c[nH]c3ccccc23)NC(=O)[C@H](C(C)C)NC(=O)[C@H](Cc2ccccc2)N(C)C(=O)[C@H](C(C)C)NC(=O)[C@H](C)NC(=O)CSC[C@@H](C(=O)NCC(=O)NCC(=O)N[C@@H](CCC(=O)O)C(=O)N[C@@H](CO)C(=O)N[C@@H](CCC(=O)O)C(=O)N[C@@H](CO)C(=O)N[C@@H](CCCCNC(=O)C2CCC(CN3C(=O)C=CC3=O)CC2)C(N)=O)NC(=O)[C@H](Cc2ccc(O)cc2)N(C)C(=O)[C@H](Cc2ccc(O)cc2)NC(=O)[C@H](CCCNC(=N)N)NC(=O)[C@H](CCCNC(=N)N)NC(=O)[C@H]([C@@H](C)CC)NC1=O (stereo partly shown) [compound 192]
- pKd [3]: 7.00 to 9.00

Structure (SMILES): CC[C@H](C)[C@@H]1NC(=O)[C@H](Cc2ccc(O)cc2)NC(=O)[C@H](Cc2ccc(O)cc2)NC(=O)[C@H](CC(N)=O)NC(=O)[C@H](Cc2c[nH]c3ccccc23)NC(=O)[C@H](C(C)C)NC(=O)[C@H](Cc2ccccc2)NC(=O)[C@H](C(C)C)NC(=O)[C@H](C)NC(=O)CSC[C@@H](C(=O)NCCOCCOCCOCCOCCOCCOCCOCCOCCOCCOCCOCCOCCC(=O)N[C@@H](CCCCNC(=O)c2ccc(-c3c4ccc(=O)cc-4oc4cc(O)ccc34)c(C(=O)O)c2)C(N)=O)NC(=O)[C@H](Cc2c[nH]cn2)NC(=O)[C@H](C(C)C)NC1=O [compound 204] ({CH2CO}-AVFVWNYYIVHC[PEG12]K(X2)-NH2; thioether N-12)
- pKd [4]: 6.00 to 7.00

Structure (SMILES): CC[C@H](C)[C@@H]1NC(=O)[C@H](Cc2ccc(O)cc2)NC(=O)[C@H](Cc2ccc(O)cc2)NC(=O)[C@H](CC(N)=O)NC(=O)[C@H](Cc2c[nH]c3ccccc23)NC(=O)[C@H](C(C)C)NC(=O)[C@H](Cc2ccccc2)NC(=O)[C@H](CCCNC(=N)N)NC(=O)[C@H](C)NC(=O)CSC[C@@H](C(N)=O)NC(=O)[C@H](Cc2ccc(O)cc2)N(C)C(=O)[C@H](Cc2ccc(O)cc2)NC(=O)[C@H](CCCNC(=N)N)NC(=O)[C@H](CCCNC(=N)N)NC(=O)[C@H]([C@@H](C)CC)NC1=O [compound 237]
- pKd [1]: 7.00 to 9.00

Structure (SMILES): CC[C@H](C)[C@@H]1NC(=O)[C@H](Cc2ccc(O)cc2)NC(=O)[C@H](Cc2ccc(O)cc2)NC(=O)[C@H](CC(N)=O)NC(=O)[C@H](Cc2c[nH]c3ccccc23)NC(=O)[C@H](C(C)C)NC(=O)[C@H](Cc2ccccc2)NC(=O)[C@H](C(C)C)NC(=O)[C@H](C)NC(=O)CSC[C@@H](C(=O)NCCOCCOCCOCCOCCOCCOCCOCCOCCOCCOCCOCCOCCC(=O)N[C@@H](CCCCNC(=O)c2ccc(-c3c4ccc(=O)cc-4oc4cc(O)ccc34)c(C(=O)O)c2)C(N)=O)NC(=O)[C@H](CCC(=O)O)NC(=O)[C@H](CCCNC(=N)N)NC(=O)[C@@H]2CCCN2C(=O)[C@H](C(C)C)NC1=O [compound 211] ({CH2CO}-AVFVWNYYIVPREC[PEG12]K(X2)-NH2; thioether N-14)
- pKd [4]: 7.00 to 9.00

Next, values leading:

- pKd [2]: 7.00 to 9.00
Structure (SMILES): CC[C@H](C)[C@@H]1NC(=O)[C@H](Cc2ccc(OC)cc2)NC(=O)[C@H](Cc2ccc(O)cc2)NC(=O)[C@H](CC(N)=O)NC(=O)[C@H](Cc2c[nH]c3ccccc23)N(C)C(=O)[C@H](C(C)C)NC(=O)[C@H](Cc2cccc(Cl)c2)N(C)C(=O)[C@H](C(C)C)NC(=O)[C@H](C)NC(=O)CSC[C@@H](C(=O)NCC(=O)NCC(=O)N[C@@H](CO)C(=O)NCC(=O)N[C@@H](CO)C(=O)NCC(=O)N[C@@H](CCCCN=[N+]=[N-])C(N)=O)NC(=O)[C@H](Cc2ccc(O)cc2)N(C)C(=O)[C@H](Cc2ccccc2)NC(=O)[C@@H](CCCCN)NC(=O)[C@H](CCCNC(=N)N)NC(=O)[C@H]([C@@H](C)CC)NC1=O [compound 406] ({CH2CO}-AV[NMePhe(3-Cl)]V[NMeW]NYY(Me)IIR[dK]F[NMeY]CGGSGSG[Lys(N3)]-NH2; thioether N-15)

- pKd (surface plasmon resonance, peptide vs hTfR, read-out: KD value, hTfR binding by SPR (class symbol)): 7.00 to 9.00
Structure (SMILES): CC[C@H](C)[C@@H]1NC(=O)[C@H](Cc2ccc(OC)cc2)NC(=O)[C@H](Cc2ccc(O)cc2)NC(=O)[C@H](CC(N)=O)NC(=O)[C@H](Cc2c[nH]c3ccccc23)N(C)C(=O)[C@H](C(C)C)NC(=O)[C@H](Cc2cccc(Cl)c2)N(C)C(=O)[C@H](C(C)C)NC(=O)[C@H](C)NC(=O)CSC[C@@H](C(N)=O)NC(=O)[C@H](Cc2ccc(O)cc2)N(C)C(=O)[C@H](Cc2ccccc2)NC(=O)[C@@H](CCCNC(=N)N)NC(=O)[C@H](CCCNC(=N)N)NC(=O)[C@H](CCC(=O)N[C@H](CCC(=O)O)C(=O)O)NC1=O [compound 347] ({CH2CO}-AV[NMePhe(3-Cl)]V[NMeW]NYY(Me)IE(dE)R[dR]F[NMeY]C-NH2; thioether N-15)

- pKd [2]: 7.00 to 9.00
Structure (SMILES): CCCCC[C@@H]1NC(=O)[C@H]([C@@H](C)CC)NC(=O)[C@H]([C@@H](C)CC)NC(=O)[C@H](Cc2ccc(OC)cc2)NC(=O)[C@H](Cc2ccc(O)cc2)NC(=O)[C@H](CC(N)=O)NC(=O)[C@H](Cc2c[nH]c3ccccc23)N(C)C(=O)[C@H](C(C)C)NC(=O)[C@H](Cc2cccc(Cl)c2)N(C)C(=O)[C@H](C(C)C)NC(=O)[C@H](C)NC(=O)CSC[C@@H](C(=O)NCCOCCOCCOCCOCCC(N)=O)NC(=O)[C@H](Cc2ccc(O)cc2)N(C)C(=O)[C@H](Cc2ccccc2)NC(=O)[C@@H](CCCNC(=N)N)NC1=O [compound 362] ({CH2CO}-AV[NMePhe(3-Cl)]V[NMeW]NYY(Me)II[Ahp(2)][dR]F[NMeY]C[PEG4]-NH2; thioether N-15)

- pKd [2]: 7.00 to 9.00
Structure (SMILES): CC[C@@H]1NC(=O)[C@H]([C@@H](C)CC)NC(=O)[C@H]([C@@H](C)CC)NC(=O)[C@H](Cc2ccc(OC)cc2)NC(=O)[C@H](Cc2ccc(O)cc2)NC(=O)[C@H](CC(N)=O)NC(=O)[C@H](Cc2c[nH]c3ccccc23)N(C)C(=O)[C@H](C(C)C)NC(=O)[C@H](Cc2cccc(Cl)c2)N(C)C(=O)[C@H](C(C)C)NC(=O)[C@H](C)NC(=O)CSC[C@@H](C(=O)NCCOCCOCCOCCOCCC(N)=O)NC(=O)[C@H](Cc2ccc(O)cc2)N(C)C(=O)[C@H](Cc2ccccc2)NC(=O)[C@@H](CCCNC(=N)N)NC1=O [compound 359] ({CH2CO}-AV[NMePhe(3-Cl)]V[NMeW]NYY(Me)II[Abu][dR]F[NMeY]C[PEG4]-NH2; thioether N-15)

- pKd (surface plasmon resonance, peptide vs hTfR, read-out: KD value for hTfR by SPR (class symbol)): 7.00 to 9.00
Structure (SMILES): CC[C@H](C)[C@@H]1NC(=O)[C@H](Cc2ccc(O)cc2)NC(=O)[C@H](Cc2ccc(O)cc2)NC(=O)[C@H](CC(N)=O)NC(=O)[C@H](Cc2c[nH]c3ccccc23)NC(=O)[C@H](C(C)C)NC(=O)[C@H](Cc2ccccc2)N(C)C(=O)[C@H](C(C)C)NC(=O)[C@H](C)NC(=O)CSC[C@@H](C(=O)NCC(=O)N[C@H](CCC(=O)O)C(=O)N[C@H](CCC(=O)O)C(=O)NCC(=O)N[C@@H](CO)C(=O)N[C@@H](CO)C(=O)N[C@@H](CSCC(=O)NC)C(N)=O)NC(=O)[C@H](Cc2ccc(O)cc2)N(C)C(=O)[C@H](Cc2ccc(O)cc2)NC(=O)[C@H](CCCNC(=N)N)NC(=O)[C@H](CCCNC(=N)N)NC(=O)[C@H]([C@@H](C)CC)NC1=O [compound 425]

- pKd [1]: 6.00 to 7.00
Structure (SMILES): CC[C@H](C)[C@@H]1NC(=O)[C@H](C2CCCCC2)NC(=O)[C@H](Cc2ccc(O)cc2)NC(=O)[C@H](Cc2ccc(O)cc2)NC(=O)[C@H](CC(N)=O)NC(=O)[C@H](Cc2c[nH]c3ccccc23)NC(=O)[C@H](C2CCCCC2)NC(=O)[C@H](Cc2ccccc2)N(C)C(=O)[C@H](C(C)C)NC(=O)[C@H](C)NC(=O)CSC[C@@H](C(=O)NCCOCCOCCOCCOCCOCCOCCOCCOCCOCCOCCOCCOCCC(N)=O)NC(=O)[C@H](Cc2ccc(O)cc2)N(C)C(=O)[C@H](Cc2ccc(O)cc2)NC(=O)[C@H](CCCNC(=N)N)NC(=O)[C@H](CCCNC(=N)N)NC1=O [compound 266] ({CH2CO}-AV[NMeF][Chg]WNYY[Chg]IRRY[NMeY]C[PEG12]-NH2; thioether N-15)
